This is an account of results in US20070270432A1, “Novel Method” (priority 2002, published 2007).

Series [1] has as its system NCAM PSA-immunoreactive neurons, dentate granule cell layer/hilar border. Kind of series: NCAM PSA expression in hippocampal dentate gyrus after chronic administration. It counts as in vivo, rat. To be noted: for PSA immunopositive cell frequency: hippocampal dentate, 40 days by gavage. The procedure:
(§1) Experimentally naïve postnatal day 80 (at the time of NCAM-PSA assessment) male Wistar rats were employed in all studies. All animals were housed singly and maintained at 22±2° C. on a standard 12 h-light/dark cycle with food and water available ad libitum. Animals were introduced to the experimental holding rooms at least 3 days prior to the commencement of any study.
(§2) Freshly dissected whole rat brain was carefully coated in optimum cutting temperature (OCT) compound and lowered into a Cryoprep freezing apparatus containing dry-ice-cooled n-hexane. The function of the OCT compound and n-hexane was to provide an even freezing of the tissue, thus avoiding freezing artefacts. Horizontal sections for all studies were cut semi-automatically or automatically on a Microm Series 500 cryostat. Fresh, frozen brain sections (12 μm) were cut at −15° C., while cryoprotected. All sections were prepared on the day of the experiment and were not pre-cut and stored frozen.
(§3) Horizontal cryosections were cut from the frozen tissue at various levels with reference to Bregma (see above), these were thaw-mounted onto glass slides, which were coated with poly-1-lysine diluted 1:1 in dH2O, and immersion fixed for 30 minutes with 70% ethanol. The sections were then washed twice for 10 minutes each in 0.1M phosphate buffered saline (PBS) and incubated for 20 hours in a humidified chamber at room temperature with the primary antibody diluted 1:500 in PBS containing 1% bovin serum albumin (w/v) and 1% normal goat serum (v/v) to reduce non-specific staining. The humidified chamber prevented the sections from evaporating. The primary antibody was a monoclonal raised against PSA, which was provided by Professor G, Rougon (CNRS UMR 6545, 13288 Marseille, France). On completion of the primary antibody incubation, the sections were washed twice for ten minutes each in PBS and incubated at room temperature for 3 hours in the humidified chamber with the secondary antibody, at a dilution factor of 1:100, again in PBS containing 1% BSA and 1% NGS. The secondary antibody was a goat anti-mouse IgM conjugated to fluorescein (FITC). Following the second incubation, the sections ware again washed twice for ten minutes each in PBS, mounted in the fluorescence enhancing medium Citifluor® and observed for fluorescence with a Leitz DM RB fluorescent microscope.
(§4) Quantitative image analysis was performed using the Leica Quantimet 500®, a P.C.-based software package, which was connected to the fluorescence microscope with a high sensitivity CCD video camera. Each microscope lens was calibrated for length and area measurements using a 1 mm graticule. The total number of NCAM PSA-immunoreactive neurons on the right dentate granule cell layer/hilar border were counted in 7 alternate 12 μm sections commencing −5.6 mm from Bregma (Paxinos and Watson, 1986), to preclude double counting of the 5-10 μm perikarya. Cell identification was aided by the use of the nuclear counter-stain propidium iodide (40 ng/ml PBS; 60 sec). The number of cells was then divided by the total area of the dentate granule cell layer and multiplied by the average granule cell layer area for a p80 rat, which is 0.15±0.01 mm^2 at this level. This was done for each section and a mean±SEM was calculated for each brain with the results expressed as PSA-positive cells per unit area. […] Cell identification was again aided by the use of the nuclear counter-stain propidium iodide (40 ng/ml PBS; 60 sec) with the use of alternate sections eliminating the possibility of double counting. Cell counts were divided by the length of the cortex and multiplied by the average length of the cortex, which was taken to be 10 mm. This was completed for each section and a mean±SEM was calculated for each brain with the results expressed as PSA-positive cells per unit length.
NCAM PSA-positive cell numbers were obtained from each animal group.

The test system is the same in series [2]. The experiment in a line: NCAM PSA expression in hippocampal dentate gyrus with water maze training. It counts as in vivo, rat. Conditions: for PSA immunopositive cell frequency: Example 2. The method, then:
as §1, §2, §3, §4
In this protocol animals were introduced to the training environment 5 days prior to training, and individually housed according to standard conditions. […]

The test system of series [3] is BrdU-immunopositive cells in the hippocampal dentate granule cell layer. Kind of series: BrdU expression in hippocampal dentate granule cell layer (neurogenesis). The class given is in vivo, rat. The procedure: as §1
The target in another series is rat 5-HT6 receptors (Rattus norvegicus, UniProt P31388). To be noted: cited from earlier work.
Sequence of rat 5-HT6 receptors (P31388 whole entry): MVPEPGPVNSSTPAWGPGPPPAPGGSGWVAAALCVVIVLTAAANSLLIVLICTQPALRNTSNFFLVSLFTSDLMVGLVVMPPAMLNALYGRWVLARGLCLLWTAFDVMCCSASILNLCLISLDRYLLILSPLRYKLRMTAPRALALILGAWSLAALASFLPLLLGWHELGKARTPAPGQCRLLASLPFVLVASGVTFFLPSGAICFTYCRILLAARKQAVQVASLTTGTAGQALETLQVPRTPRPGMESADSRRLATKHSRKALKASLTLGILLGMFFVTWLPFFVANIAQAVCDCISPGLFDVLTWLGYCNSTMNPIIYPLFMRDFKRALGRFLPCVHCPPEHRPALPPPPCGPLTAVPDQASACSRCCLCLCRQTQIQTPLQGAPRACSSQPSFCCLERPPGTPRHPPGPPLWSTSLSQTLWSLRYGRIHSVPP
The conditions of series [4]: in vivo; cited from earlier work.
In series [5] the test system is retention of a spacial memory task. Conditions: rat, 10 mg/kg p.o.; cited from earlier work.

For the molecule `COc1ccc(NS(=O)(=O)c2sc3ccc(Cl)cc3c2C)cc1N1CCNCC1.Cl` [SB271046, 5-Chloro-3-methylbenzo[b]thiophene-2-sulfonic acid (4-methoxy-3-piperazin-1-ylphenyl)amide hydrochloride], the “PSA immunopositive cell frequency” value is listed as 70.3 ± 3.9 PSA-positive cells per unit area in series [1] (Example 1, 3 mg/kg); 82.4 ± 1.7 PSA-positive cells per unit area in series [1] (Example 1, 10 mg/kg); 85.8 ± 8.4 PSA-positive cells per unit area in series [1] (Example 1, 20 mg/kg); 78.3 ± 3.4 PSA-positive cells per unit area in series [1] (Example 3, 20 mg/kg); 96.0 ± 5.5 PSA-positive cells per unit area in series [2] (acute 20 mg/kg by gavage 30 min before water maze training, 12 h post-training); 64.2 ± 4.3 PSA-positive cells per unit area in series [2] (acute 20 mg/kg by gavage, untrained). Also, the “PSA immunopositive cell frequency” value in series [2] (chronic 20 mg/kg, 40 days by gavage, 12 h post water maze training) is 109.8 ± 1.8 PSA-positive cells per unit area; in series [2] (chronic 20 mg/kg, 40 days by gavage, untrained) it was 85.8 ± 1.3 PSA-positive cells per unit area. The “frequency of polysialylated neurons in repeat group compared with Example 1” value in series [1] (Example 3 repeat, 20 mg/kg chronic) was “no difference”. For the same molecule, the “effect on frequency of polysialylated neurons in the subventricular zone of the rat hippocampal dentate gyrus” value in series [1] (chronic administration, versus vehicle-treated control) is “significantly increase”. Besides, the “effect on frequency of polysialylated neurons at 12 h following water maze training” value in series [2] (acute 20 mg/kg, versus untrained drug-treated and trained drug-naive animals) is “significantly increase”. Moreover, the “BrdU-immunopositive cell number/granule cell layer” value in series [3] (20 mg/kg, 40 days by gavage, BrdU 100 mg/kg i.p. last eight days) was 2332 ± 136.5. Also, in series [3] (chronic 20 mg/kg, versus vehicle-treated controls), the “effect on expression of BrdU-immunopositive cells / neurogenic rate” value was “without altering neurogenic rate”. At rat 5-HT6 receptors, the pKi is on record as 9.0. Moreover, the oral bioavailability entry in series [4] is “orally bioavailable”. In series [5], the “retention of a spacial memory task” value was “significant improvements”.
